Test results: patent US20260015364A1, “PIPERAZINE BRIDGE-SUBSTITUTED HETEROCYCLIC PYRIMIDINE COMPOUND” (MEDSHINE DISCOVERY INC., priority 2022, published 2026)

How the values were obtained:
[1] = In vivo pharmacokinetic experiment in CD-1 mice
Method: This experiment aims to investigate the pharmacokinetic properties of the compounds of the present disclosure administrated by oral and intravenous injection in CD-1 mice.
The test compound was mixed with 10% dimethyl sulfoxide+90% (10% hydroxypropyl-β-cyclodextrin (HP-β-CD) aqueous solution), vortexed, and sonicated to prepare 0.6, 3.0, and 10.0 mg/mL clear solutions, respectively. Male CD-1 mice aged 7 to 10 weeks were selected and intravenously injected (i.v.) with a solution of the candidate compound at a dose of 3 mg/kg (administration concentration of 0.6 mg/mL). The solution of the candidate compound was administered orally (p.o.) at a dose of 30 mg/kg (administration concentration of 3.0 mg/mL) or 100 mg/kg (administration concentration of 10.0 mg/mL). Whole blood was collected for a certain period of time and prepared into plasma. The drug concentration was analyzed by the LC-MS/MS method, and the pharmacokinetic parameters were calculated using Phoenix WinNonlin software (Pharsight, USA).

p-ERK in GP2D cells = assay: p-ERK inhibition test of GP2D cells (HTRF); assay type: cell-based; details: Homo sapiens, 1 hour compound incubation
Method: • 1). GP2D cells are seeded in a transparent 96-well cell culture plate, with 80 μL of cell suspension per well and 8000 cells per well, and the cell plate is incubated in a carbon dioxide incubator at 37° C. overnight; • 2). 2 μL of the compound is added to 78 μL of cell culture medium; after mixing well, 20 μL of the compound solution is taken and added to the corresponding cell plate wells, and the cell plate is put back into the carbon dioxide incubator to incubate for another 1 hour; • 3). After the incubation is completed, the cell supernatant is discarded, and 50 μL of 1× cell lysate is added to each well, and incubated at room temperature for 30 minutes with shaking; • 4). Phospho-ERK1/2 Eu Cryptate antibody and Phospho-ERK1/2 d2 antibody are 20-fold diluted using detection buffer; • 5). […] After the incubation is completed, a multimode microplate reader is used to read HTRF excitation: 320 nm, emission: 615 nm, 665 nm; • 7). The IC50 of the test compound is calculated.
• 1). […] After the incubation was completed, a multimode microplate reader was used to read HTRF excitation: 320 nm, emission: 615 nm, 665 nm; • 7) The IC50 of the test compound was calculated.

[2] = test system: PANC04.03 cell subcutaneously transplanted tumors; assay: In vivo pharmacodynamic experiment of PANC04.03 tumor model; set-up: species or system Balb/c Nude mice; details: p.o., BID, 28 days of administration
Method: In vivo pharmacodynamics of PANC04.03 cell subcutaneously transplanted tumors in Balb/c Nude mice model with human pancreatic cancer
Cell culture: Human pancreatic cancer PANC04.03 cells were cultured in monolayer in vitro. The culture conditions were RPMI-1640+15% FBS+10 units/mL insulin, and cultured in a 37° C., 5% carbon dioxide incubator. Routine digestion with trypsin-EDTA was performed twice a week for passaging. When the cell saturation reached 80% to 90% and the required quantity was reached, the cells were harvested, counted, and resuspended in an appropriate amount of PBS to obtain a cell suspension with a cell density of 25×10^6 cells/mL.
Cell inoculation: 0.2 mL (5×10^6 cells/mouse) of PANC04.03 cells were subcutaneously inoculated into the right back of each mouse.
Experimental operation: When the average tumor volume reached 190 mm^3, the mice were randomly divided into groups according to the tumor volume, with 6 animals in each group. The blank group was administered with a dose of 0, and the test group was orally administered with a dose of 30 mg/kg, 100 mg/kg, 150 mg/kg, and a volume of 10 μL/g, respectively, and was administered twice a day for 28 days.
Tumor diameters were measured twice a week with a vernier caliper. The formula for calculating tumor volume is: V=0.5a×b^2, wherein a and b represent the long and short diameters of the tumor, respectively.
The tumor inhibitory efficacy of the compound was evaluated by TGI (%) or relative tumor proliferation rate T/C (%). Relative tumor proliferation rate T/C (%)=TRTV/CRTV×100% (TRTV:RTV of treatment group; CRTV:RTV of negative control group). The relative tumor volume (RTV) was calculated based on the results of tumor measurements. The calculation formula is RTV=Vt/V0, where V0 is the average tumor volume measured at the beginning of administration in groups (i.e., D0), and Vt is the average tumor volume measured at a certain measurement. TRTV and CRTV used the data from the same day.
TGI (%) reflected the tumor growth inhibition rate. […]

[3] = male, mouse, iv, 3 mg/kg, i.v. 3 mpk, plasma
[4] = male, mouse, po, 30 mg/kg, p.o. 30 mpk, plasma
[5] = male, mouse, po, 100 mg/kg, p.o. 100 mpk, plasma

C#Cc1c(F)ccc2cc(N)cc(-c3ncc4c(N5CC6CCC(C5)N6)nc(OC[C@@]56CC(=C)CN5C[C@@H]5C[C@@H]56)nc4c3F)c12 (single isomer, unassigned) [Compound 3]
AUC(0-inf) [1, 3]: 1.66 µM·h
AUC(0-t) [1, 3]: 1.56 µM·h
Vd [1, 3]: 41.1 L/kg
clearance [1, 3]: 50.8 mL/min/kg
half-life [1, 3]: 9.3 h
AUC(0-inf) [1, 4]: 1.18 µM·h
AUC(0-t) [1, 4]: 1.15 µM·h
Cmax [1, 4]: 439 nM
Tmax [1, 4]: 0.583 h
half-life [1, 4]: 5.41 h
AUC(0-inf) [1, 5]: 13.3 µM·h
AUC(0-t) [1, 5]: 13.1 µM·h
Cmax [1, 5]: 3110 nM
Tmax [1, 5]: 1.25 h
half-life [1, 5]: 4.24 h
F ([1]; p.o. 100 mpk): 24.0%
IC50 (p-ERK in GP2D cells): 2.4 nM
TGI ([2]; 30 mpk): 95.41%
TGI ([2]; 100 mpk): 108.41%
TGI ([2]; 150 mpk): 115.80%
